Patent publication US12421254B2, “KRAS modulators and uses thereof” (Quanta Therapeutics, Inc., priority 2023, dated 2025)
Read-outs that look alike come from different tables or passages of the source.

Experiments:
KRAS G12D/RAF1 = target: T1, KRAS G12D/RAF1 (Homo sapiens, UniProt P01116, G12D); experiment: Protein-protein interaction (PPI) HTRF assay KRAS G12D/RAF1; assay type: binding; conditions: Table 2
T1 construct: KRAS (1-169) proteins were expressed in BL21 (DE3)-CodonPlus E. coli; His6-MBP (N, cleaved yes)
T1 sequence (P01116 with tags, fused parts or gaps isoform P01116-2 G12D): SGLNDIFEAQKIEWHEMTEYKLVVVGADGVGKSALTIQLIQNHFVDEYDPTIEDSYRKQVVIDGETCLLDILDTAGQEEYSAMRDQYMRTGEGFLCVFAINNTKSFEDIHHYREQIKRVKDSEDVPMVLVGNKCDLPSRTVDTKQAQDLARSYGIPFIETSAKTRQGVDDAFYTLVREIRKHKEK
Protocol: (§1) When RAS proteins are in the active GTP-bound conformation, they bind the effector protein RAF1 at the N-terminus Ras-binding domain (RBD, residues 52-131) (Tran, et al., 2021). Homogenous time resolved fluorescence (HTRF) was used to monitor the interaction between wt or mutant KRAS and RAF1 or wt NRAS and RAF1. Compounds were assayed in the presence of KRAS G12D/V and RAF1 versus wt KRAS to assess activity against mutant and w.t. KRAS. Similarly, compounds were then assayed in the presence of w.t. NRAS and RAF1 to assess RAS isoform selectivity. In all assay formats, His-tagged RAF1 protein was incubated with the HTRF donor, anti-6His Tb Cryptate gold (Cisbio 61DB10RDF), and biotinylated RAS proteins were incubated with the HTRF acceptor, streptavidin-d2 (CisBio 610SADLA). The intensity of the fluorescence signal emitted is proportional to binding between the two proteins. The donor solution was prepared by mixing 16 nM His-tagged RAF1 in protein dilution buffer with 1:100 anti-6His Tb cryptate in PPI-Terbium detection buffer. 16 nM biotinylated RAS protein was diluted into protein dilution buffer (50 mM Tris-HCl pH 7.5, 150 mM NaCl, 0.1 mM MgCl2, 1 mM TCEP, 0.005% Tween20) and mixed with 1:2000 Streptavidin-d2 diluted in PPI-Terbium detection buffer (CisBio 61DB10RDF). 50× compound in DMSO was mixed with 16 nM KRAS-acceptor solution and incubated for 30 minutes at room temperature. After compound pre-incubation with KRAS, the RAF1 donor solution was added to the KRAS-acceptor solution and incubated for 1 hour at room temperature. The fluorescence signal emitted was monitored at 665 nm and 615 nm using an Envision multimode plate reader. The HTRF ratio (665/615) was calculated and normalized to 0% inhibition in the absence of compound and 100% inhibition in the presence of untagged RAF1 protein. PPI KRAS G12D/RAF1, KRAS G12V/RAF1, w.t. KRAS/RAF1 and NRAS/RAF1 IC50 (uM) values of selected compounds are depicted in Table 3 and Table 4 with compounds having a value <0.1 uM as ++++; ≥0.1 uM to 1 uM as +++; ≥1 uM to 10 uM as ++; ≥10 uM to 100 uM as +; and ≥100 uM as NA.

[1] = target: GST-tagged KRAS-G12V (2-169) (Homo sapiens, UniProt P01116, G12V); experiment: Nucleotide exchange assay (NEA), SOS-mediated, HTRF, KRAS G12V; assay type: biochemical; conditions: Table 4; IC50 extracted at 90 min; 80 nM SOS
Sequence of GST-tagged KRAS-G12V (2-169) (P01116 2-169 isoform P01116-2 G12V): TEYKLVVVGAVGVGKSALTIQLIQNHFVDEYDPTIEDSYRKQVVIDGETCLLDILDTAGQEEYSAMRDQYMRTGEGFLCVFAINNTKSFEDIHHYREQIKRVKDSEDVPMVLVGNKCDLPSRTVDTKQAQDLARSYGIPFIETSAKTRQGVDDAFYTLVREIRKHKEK
Method in brief: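 GST-KRAS-G12V (2-169), 0.25 nM, pre-incubated 1 h at RT with compound, then SOS1cat (564-1049) 80 nM and GTP-DY-647P1 150 nM added in HEPES pH 7.3 buffer with MgCl2 and DTT. HTRF via anti-GST Tb cryptate read over 90 min; IC50 from 4-parameter fit at 90 min, blanked to no-SOS reactions.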

KRAS G12V/RAF1 = target: T2, KRAS G12V/RAF1 (Homo sapiens, UniProt P01116, G12V); experiment: Protein-protein interaction (PPI) HTRF assay KRAS G12V/RAF1; assay type: binding; conditions: Table 3
T2 construct: KRAS (1-169) proteins were expressed in BL21 (DE3)-CodonPlus E. coli; His6-MBP (N, cleaved yes)
T2 sequence (P01116 with tags, fused parts or gaps isoform P01116-2 G12V): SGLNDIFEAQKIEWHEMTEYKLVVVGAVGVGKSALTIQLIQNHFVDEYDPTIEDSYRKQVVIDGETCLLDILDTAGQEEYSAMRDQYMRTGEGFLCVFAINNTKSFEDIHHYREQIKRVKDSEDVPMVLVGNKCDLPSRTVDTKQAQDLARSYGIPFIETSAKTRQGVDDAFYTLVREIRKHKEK
Protocol: as §1

[2] = test system: phospho-ERK in GP2D (KRAS-G12D) cells; experiment: pERK In Cell Western (ICW) assay (Method B), GP2D; assay type: cell-based; conditions: GP2d, 3 h, Table 4
Method in brief: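 Cells were seeded at 5,000/well (AGS) or 10,000/well (GP2D, SW620), grown overnight, then treated 3 h at 37 °C with a ½-log 9-point compound dilution. Fixed cells were stained for phospho-ERK with DRAQ5 as DNA counterstain; pERK/DRAQ5 ratio as percent of blank control gave IC50 by 4-parameter fit.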

[3] = target: GST-tagged KRAS-G12D (2-169) (Homo sapiens, UniProt P01116, G12D); experiment: Nucleotide exchange assay (NEA), SOS-mediated, HTRF, KRAS G12D; assay type: biochemical; conditions: IC50 extracted at 30 min, 20 nM SOScat
Sequence of GST-tagged KRAS-G12D (2-169) (P01116 2-169 isoform P01116-2 G12D): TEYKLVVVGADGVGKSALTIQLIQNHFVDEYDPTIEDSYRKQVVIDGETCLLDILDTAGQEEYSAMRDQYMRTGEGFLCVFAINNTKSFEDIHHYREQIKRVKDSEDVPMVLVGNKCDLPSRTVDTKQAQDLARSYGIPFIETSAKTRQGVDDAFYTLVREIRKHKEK
Method in brief: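 Compound preincubated 1 h at RT with 0.25 nM GST-KRAS-G12D (2-169) and anti-GST Tb donor, then 20 nM SOS1cat (564-1049) and 150 nM GTP-DY-647P1 added; pH 7.3 HEPES buffer with MgCl2 and DTT. HTRF monitored at RT; % inhibition versus DMSO and no-SOS blank, 4-parameter IC50 taken at 30 min.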

phospho-ERK in AGS cells = experiment: pERK In Cell Western (ICW) assay (Method B), AGS; assay type: cell-based; conditions: Homo sapiens, Table 2, 3 hours
Protocol: pERK ICW is a high throughput screening assay to evaluate the cellular potency of mutant KRAS small molecule inhibitors. KRAS mutant cell lines AGS, GP2D (KRAS-G12D) as well as SW620 (KRAS-G12V) were purchased from ATCC and maintained respectively in RPMI/DMEM/RPMI medium supplemented with 10% fetal bovine serum.
Cells grown in exponential phase were trypsinized, resuspended in fresh media, and viable cells were counted using a cell counter with Trypan Blue (BioRad TC20). Cells were seeded into 384-well plate (Greiner 781091) at density of 5,000 cells/well for AGS and 10,000 cells/well for GP2D/SW620 and allowed to grow overnight in a 37° C. CO2 incubator. The next day, compounds were dispensed into wells with a ½ log, 9-point serial dilution using a Tecan D300e dispenser and incubated for 3 hours in a 37° C. CO2 incubator. Cells were then fixed with paraformaldehyde (Electron Microscopy Sciences, 15710, 4% final concentration) for 30 min, permeabilized with wash buffer (1×PBS+0.1% Triton X-100) for 30 min and blocked with Odyssey blocking buffer (Li—COR 927-70001) for 1 hour, all at room temperature (RT). Phospho-ERK antibody (CST 4370L) was diluted 1:500 in Odyssey T20 (PBS) antibody diluent (Li—COR 927-75001) and incubated with cells overnight at 4° C. The next day, plates were washed 5× with wash buffer, incubated with IRDye 800 CW, Goat anti-Rabbit secondary antibody (Li—COR 926-32211, 1:800) and DRAQ5 (CST 4084L, 1:5,000) diluted in Odyssey T20 (PBS) antibody diluent for 1 hour, washed 5×, and imaged on an Odyssey CLx imaging system.
For data analysis, signal intensities from 800 (phosphor-ERK) and 700 (DRAQ5) channels were extracted, and phospho-ERK signals were normalized to DRAQ5 signals for each well and percent of blank control values were computed. Data were then imported into Graphpad Prism to compute half-maximal inhibitory concentrations (IC50) using a 4-parameter variable slope model. Z-factor for each plate was computed from signals derived from wells treated with either DMSO or 5 μM of control compound. AGS pERK ICW (Method B) IC50 (uM) values of selected compounds are depicted in Table 2 with compounds having a value ≥0.001 uM to 0.01 uM as ++++; ≥0.01 uM to 0.1 uM as +++; ≥0.1 uM to 1 uM as ++; ≥1 uM to 10 uM as + and ≥10 uM as NA.

w.t. KRAS/RAF1 = target: T3, w.t. KRAS/RAF1 (Homo sapiens, UniProt P01116); experiment: Protein-protein interaction (PPI) HTRF assay w.t. KRAS/RAF1; assay type: binding; conditions: Table 3; wt KRAS/RAF1
T3 construct: KRAS (1-169) proteins were expressed in BL21 (DE3)-CodonPlus E. coli; His6-MBP (N, cleaved yes)
T3 sequence (P01116 with tags, fused parts or gaps isoform P01116-2): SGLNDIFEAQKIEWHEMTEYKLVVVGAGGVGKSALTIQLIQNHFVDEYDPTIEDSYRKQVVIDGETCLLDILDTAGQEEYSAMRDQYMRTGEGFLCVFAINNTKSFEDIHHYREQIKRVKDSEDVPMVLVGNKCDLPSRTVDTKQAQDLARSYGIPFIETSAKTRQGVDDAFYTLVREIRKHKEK
Protocol: as §1

[4] = Table 2, read-out: NEA-G12D (uM) IC50
[5] = Table 4, read-out: NEA G12D IC50

Compound | IC50 (KRAS G12D/RAF1) [µM] | IC50 [1] [nM] | IC50 (KRAS G12V/RAF1) [µM] | IC50 [2] [nM] | IC50 [3, 4] [µM] | IC50 [3, 5] [µM] | IC50 (phospho-ERK in AGS cells) [µM] | IC50 (w.t. KRAS/RAF1) [µM]
N#Cc1c(N)sc2c1C1(CC2)CN(c2nc(OC[C@@]34CCCN3C[C@H](F)C4)nc(N3CCC[C@@H](CO)C3)n2)C1 [Compound 20, 2-amino-1′-[4-[[(2R,8S)-2-fluoro-1,2,3,5,6,7-hexahydropyrrolizin-8-yl]methoxy]-6-[(3R)-3-(hydroxymethyl)-1-piperidyl]-1,3,5-triazin-2-yl]spiro[5,6-dihydrocyclopenta[b]thiophene-4,3′-azetidine]-3-carbonitrile] | 10 to 100 | 10 to 100 | 10 to 100 | 1000 to 20000 | 0.01 to 0.1 | 0.01 to 0.1 | 1 to 10 | –
CC1(C#N)CCCN(c2nc(OC[C@@]34CCCN3C[C@H](F)C4)nc(N3CC4(CCc5sc(N)c(C#N)c54)C3)n2)C1 (stereo partly drawn) [Compound 19, 2-amino-1′-[4-(3-cyano-3-methyl-1-piperidyl)-6-[[(2R,8S)-2-fluoro-1,2,3,5,6,7-hexahydropyrrolizin-8-yl]methoxy]-1,3,5-triazin-2-yl]spiro[5,6-dihydrocyclopenta[b]thiophene-4,3′-azetidine]-3-carbonitrile] | 1 to 10 | 10 to 100 | 1 to 10 | 100 to 1000 | 0.01 to 0.1 | 0.01 to 0.1 | 0.1 to 1 | 1 to 10
CN(CC1(C#N)CC1)c1nc(OC[C@@]23CCCN2C[C@H](F)C3)nc(N2CC3(CCc4sc(N)c(C#N)c43)C2)n1 [Compound 15, 2-amino-1′-[4-[(1-cyanocyclopropyl)methyl-methyl-amino]-6-[[(2R,8S)-2-fluoro-1,2,3,5,6,7-hexahydropyrrolizin-8-yl]methoxy]-1,3,5-triazin-2-yl]spiro[5,6-dihydrocyclopenta[b]thiophene-4,3′-azetidine]-3-carbonitrile] | 1 to 10 | 10 to 100 | 1 to 10 | – | 0.1 to 1 | 0.1 to 1 | – | 1 to 10
C[C@]1(O)CN(c2nc(OC[C@@]34CCCN3C[C@H](F)C4)nc(N3CC4(CCc5sc(N)c(C#N)c54)C3)n2)CC[C@H]1O [Compound 21, 2-amino-1′-[4-[(3S,4R)-3,4-dihydroxy-3-methyl-1-piperidyl]-6-[[(2R,8S)-2-fluoro-1,2,3,5,6,7-hexahydropyrrolizin-8-yl]methoxy]-1,3,5-triazin-2-yl]spiro[5,6-dihydrocyclopenta[b]thiophene-4,3′-azetidine]-3-carbonitrile] | 0.1 to 1 | 10 to 100 | 1 to 10 | 100 to 1000 | 0.01 to 0.1 | 0.01 to 0.1 | 0.1 to 1 | 0.1 to 1
